Data from patent US7442702B2, “Prostaglandin agonists” (priority 1997, dated 2008).

Experiments:
[1] = system: expression of Bone Morphogenetic Protein 7 (BMP-7) in wild type 293S cells; experiment: Kidney regeneration assay: BMP-7 expression (Northern blot) in wild type 293S cells; type: cell-based, human; settings: parental 293S cell line, 10^−6M, RNA extracted at 8, 16 and 24 hours
Protocol: (§1) Methods: 293S and EP293S cells are grown in Dulbecco's Modified Egale medium (DMEM, Gibco, BRL; Gaithersburg, Md.). […] Cells are harvested and RNA is extracted at 8, 16 and 24 hours. Northern blot analysis of total RNA ([…]) is carried out by probing the blots with ^32P-labeled BMP-7 probe. The blots are normalized for RNA loading by hybridization with ^32P-labeled 18s ribosomal RNA probe. […] Given the known role of BMP-7 in kidney regeneration and the ability of an prostaglandin agonist to induce BMP-7 expression in 293S kidney cells in a time and receptor specific manner indicates a role for prostaglandin agonist in kidney regeneration.

[2] = system: expression of Bone Morphogenetic Protein 7 (BMP-7) in 293S cells transfected with EP2; experiment: Kidney regeneration assay: BMP-7 expression (Northern blot) in 293S cells transfected with EP2; type: cell-based, human; settings: EP2 293S cells, 10^−6M, RNA extracted at 8, 16 and 24 hours
Protocol: as §1

CCCCC[C@H](O)/C=C/[C@H]1[C@H](O)CC(=O)[C@@H]1C/C=C\CCCC(=O)O [PGE2, Prostaglandin E2]
induction of expression of BMP-7 [1]: generally not observed
induction of expression of BMP-7 [2]: induce the expression of BMP-7 in the EP2 293S cells in a time dependent manner
